Data reported in US12590062B2, “PD-1/PD-L1 inhibitors” (Gilead Sciences, Inc., priority 2017, dated 2026).

Experiments:
PD-L1 = molecular target: T1, PD-L1 (Homo sapiens, UniProt Q9NZQ7); test: PD-L1/PD-L1 dimerization biochemical protein-protein interaction assay (ALPHA); format: binding; conditions: compound-induced PD-L1 dimerization, head prints '1 nM' (0.5 nM His-tagged PD-L1 and 0.5 nM FLAG-tagged PD-L1), read-out: AC50 PDL1 Dimer Alpha 1 nM
T1 construct: determine if they can specifically dimerize the extracellular domains of PD-L1
T1 sequence (Q9NZQ7 19-238 limits assumed): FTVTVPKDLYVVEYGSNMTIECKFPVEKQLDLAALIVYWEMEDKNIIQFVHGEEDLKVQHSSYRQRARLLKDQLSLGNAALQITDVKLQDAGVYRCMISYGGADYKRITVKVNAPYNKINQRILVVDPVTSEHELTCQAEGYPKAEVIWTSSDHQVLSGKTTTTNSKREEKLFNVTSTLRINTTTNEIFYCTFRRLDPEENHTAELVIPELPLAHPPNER
T1 sequence (Q9NZQ7 19-238 limits assumed): as above
In short: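 After 2 h at 25 °C with compound, His- and FLAG-tagged PD-L1 ECDs (each 0.5 nM final; 25 mM Hepes pH 7.4, 150 mM NaCl) were detected by sequential anti-His acceptor and anti-FLAG donor bead incubations. Dose-response curves fitted to four-parameter equation for AC50.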

PD-1/PD-L1 = PD-1/PD-L1 (Homo sapiens, UniProt Q9NZQ7); test: PD-1/PD-L1 biochemical protein-protein interaction assay (ALPHA); format: binding; conditions: 0.3 nM His tagged PD-L1, 2.5 nM biotinylated Fc-PD-1, 60 minutes at 25° C., read-out: IC50 PD-L1-PD-1 Alpha IC50-mono PD-L1-fcP-D1
PD-1/PD-L1, sequence (Q9NZQ7 19-238 limits assumed): as above
In short: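 IC50 values derive from four-parameter fits of ALPHA signal decrease. Assay: 0.3 nM His-tagged PD-L1 with 2.5 nM biotinylated Fc-PD-1, Hepes pH 7.4 with 0.005% Tween 20 and 0.01% BSA, 60 min at 25° C, then anti-His acceptor and streptavidin donor beads.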

PD-1/PD-L1 interaction = molecular target: T2, PD-1/PD-L1 interaction (Homo sapiens, UniProt Q9NZQ7); test: PD-1/PD-L1 NFAT reporter co-culture assay; format: cell-based; conditions: Jurkat PD-1 NFAT-luciferase cells co-cultured with aAPC-PD-L1 CHO cells, 6 hrs at 37° C.; read-out: EC50 NFAT Luciferase
T2 construct: expressed in transfected cells; host or cells: CHO cells (aAPC-PD-L1) co-cultured with Jurkat cells overexpressing PD-1 and an NFAT-luciferase reporter
T2 sequence (Q9NZQ7 19-290): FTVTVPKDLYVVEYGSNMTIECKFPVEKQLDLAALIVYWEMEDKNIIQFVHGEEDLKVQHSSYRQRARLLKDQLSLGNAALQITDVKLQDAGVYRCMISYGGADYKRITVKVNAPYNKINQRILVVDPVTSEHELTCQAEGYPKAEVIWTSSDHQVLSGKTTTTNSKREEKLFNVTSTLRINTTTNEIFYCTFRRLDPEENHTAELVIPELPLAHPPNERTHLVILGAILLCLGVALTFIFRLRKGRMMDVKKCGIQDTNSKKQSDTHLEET
In short: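 Restoration of TCR-driven NFAT luciferase signal: 6 h, 37 °C co-culture of PD-1 Jurkat reporter cells (pre-mixed with compound) on overnight-seeded PD-L1/anti-CD3 CHO monolayer. ONE-Glo luminescence; dose-response fitted to four-parameter equation for EC50.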

SMILES | AC50 (PD-L1) | IC50 (PD-1/PD-L1) | EC50 (PD-1/PD-L1 interaction)
COc1nc(-c2cccc(-c3cccc(-c4ccc5c(c4)C[C@@H](N)C5)c3Cl)c2Cl)ccc1C1=NCCN1 [Example 625] | 98.2 nM | 0.238 nM | ≥ 50000 nM
O=C1CC[C@@H](CNCc2ccc(-c3cccc(-c4cccc(-c5ccc(CNC[C@@H]6CCC(=O)N6)c(N6CCOCC6)c5)c4Cl)c3Cl)cc2N2CCOCC2)N1 [Example 626] | ≥ 10000 nM | 3.08 nM | ≥ 50000 nM
COc1cc(-c2cccc(-c3cccc(-c4ccc(CNCCO)c(OC)c4)c3C)c2C)ccc1CNCCO [Example 627] | 480 nM | 2.44 nM | ≥ 50000 nM
COc1cc(-c2cccc(-c3cccc(-c4cnc(C5=NCCN5)c(OC)c4)c3Cl)c2Cl)cnc1CNC[C@@H](O)CC(=O)O [Example 629] | ≥ 10000 nM | 0.064 nM | 251 nM
COc1cc(-c2cccc(-c3cccc(-c4cnc(C5=NCCN5)c(OC)c4)c3Cl)c2Cl)cnc1C1=NCCN1 [Example 630] | ≥ 10000 nM | 0.064 nM | 165 nM
COc1nc(-c2cccc(-c3cccc(N4Cc5cc(CN6CC7(CCC(=O)N7)C6)ccc5C4=O)c3Cl)c2Cl)ccc1CN1CC2(CCC(=O)N2)C1 [Example 631] | 441 nM | 0.13 nM | ≥ 50000 nM
COc1nc(-c2cccc(-c3cccc(N4Cc5cc(CNC[C@@H]6CCC(=O)N6)ccc5C4=O)c3Cl)c2Cl)ccc1CNC[C@@H]1CCC(=O)N1 [Example 632] | 314 nM | 0.147 nM | 2980 nM
COc1nc(-c2cccc(-c3cccc(-c4nc5ccc(CNC[C@@H]6CCC(=O)N6)cn5n4)c3Cl)c2Cl)ccc1CNC[C@@H]1CCC(=O)N1 [Example 633] | 2840 nM | 1.26 nM | 2280 nM
COc1nc(-c2cccc(-c3cccc(-c4nc5cc(CNCCO)cc(OC)c5o4)c3Cl)c2Cl)ccc1CNCCO [Example 634] | 96.9 nM | 0.208 nM | 495 nM
OCCNCc1cc(Cl)c2nc(-c3cccc(-c4cccc(-c5nc6c(Cl)cc(CNCCO)cn6n5)c4Cl)c3Cl)nn2c1 [Example 635] | 340 nM | 0.1 nM | ≥ 50000 nM
COc1nc(-c2cccc(-c3cccc(-c4nc5cc(CNCCO)ccc5o4)c3Cl)c2Cl)ccc1CNCCO [Example 636] | 83.6 nM | 0.188 nM | 180 nM
CS(=O)(=O)c1cncc(COc2nc(O[C@H]3CCc4c(-c5cccc(-c6ccc(OCCNCCO)cc6)c5Cl)cccc43)c(Cl)cc2CNC[C@@H](O)CC(=O)O)c1 [Example 637, (S)-4-(((5-chloro-6-(((S)-4-(2-chloro-4′-(2-((2-hydroxyethyl)amino)ethoxy)-[1,1′-biphenyl]-3-yl)-2,3-dihydro-1H-inden-1-yl)oxy)-2-((5-(methylsulfonyl)pyridin-3-yl)methoxy)pyridin-3-yl)methyl)amino)-3-hydroxybutanoic acid] | 20.8 nM | 0.064 nM | 90 nM
COc1nc(O[C@H]2CCc3c(-c4cccc(-c5nc6cc(CNCCO)ccn6n5)c4Cl)cccc32)c(Cl)cc1CNCCO [Example 638, (S)-2-(((2-(2-chloro-3-(1-((3-chloro-5-(((2-hydroxyethyl)amino)methyl)-6-methoxypyridin-2-yl)oxy)-2,3-dihydro-1H-inden-4-yl)phenyl)-[1,2,4]triazolo[1,5-a]pyridin-7-yl)methyl)amino)ethan-1-ol] | 23.8 nM | 0.064 nM | 429 nM
COc1nc(-c2cccc(-c3cccc4c3CC[C@@H]4Oc3nc(OC)c(CN4CC[C@@H](c5nnn[nH]5)C4)cc3Cl)c2Cl)ccc1CNC[C@@H]1CCC(=O)N1 [Example 641] | 34.7 nM | 0.064 nM | 60 nM
COc1nc(O[C@H]2CCc3c(-c4cccc(-c5cnc(CNC[C@@H]6CCC(=O)N6)c(OC)n5)c4Cl)cccc32)c(Cl)cc1CN[C@@H]1CCC[C@@H]1O [Example 642] | 67.2 nM | 2.36 nM | 194 nM
COc1nc(O[C@H]2CCc3c(-c4cccc(-c5cnc(CN[C@@H]6CCC[C@@H]6O)c(OC)n5)c4Cl)cccc32)c(Cl)cc1CN[C@@H]1CCC[C@@H]1O [Example 643] | 39 nM | 0.734 nM | 89 nM
COc1nc(-c2cccc(-c3cccc4c3CC[C@@H]4Oc3nc(OC)c(CNC[C@@H]4CCC(=O)N4)cc3Cl)c2Cl)ccc1CN[C@@H]1CCC[C@@H]1O [Example 644] | 136 nM | 1.95 nM | 82 nM

SMILES | AC50 (PD-L1) | IC50 (PD-1/PD-L1) | EC50 (PD-1/PD-L1 interaction)
COc1nc(-c2cccc(-c3cccc4c3CC[C@@H]4Oc3nc(OC)c(CN[C@@](C)(CO)C(=O)O)cc3Cl)c2Cl)ccc1CN[C@@H]1CCC[C@@H]1O [Example 645] | 30.7 nM | 0.064 nM | 30 nM
COc1nc(-c2cccc(-c3cccc4c3CC[C@@H]4Oc3nc(OC)c(CN[C@@H]4CCC[C@@H]4O)cc3Cl)c2Cl)ccc1CN[C@@H]1CCC[C@@H]1O [Example 646] | 73.2 nM | 6.25 nM | 145 nM
COc1nc(O[C@H]2CCc3c(-c4cccc(-c5cnc(CN[C@@H]6CCC[C@@H]6O)c(OC)n5)c4Cl)cccc32)c(Cl)cc1CNC[C@@H]1CCC(=O)N1 [Example 647] | 211 nM | 1.89 nM | 234 nM
COc1nc(O[C@H]2CCc3c(-c4cccc(-c5cnc(CN[C@@H]6CCC[C@@H]6O)c(OC)n5)c4Cl)cccc32)c(Cl)cc1CN[C@@](C)(CO)C(=O)O [Example 648] | 60.9 nM | 0.064 nM | 57 nM
COc1nc(O[C@H]2CCc3c(-c4cccc(-c5cnc(CNC[C@@H]6CCC(=O)N6)c(OC)n5)c4Cl)cccc32)c(Cl)cc1CN[C@@](C)(CO)C(=O)O [Example 649] | 38.8 nM | 0.064 nM | 29 nM
COc1nc(O[C@H]2CCc3c(-c4cccc(-c5ccc(CNC[C@@H]6CCC(=O)N6)c(OCC#N)c5)c4Cl)cccc32)c(Cl)cc1CN[C@@H]1CCC[C@@H]1O [Example 650] | 8.2 nM | 0.288 nM | 39 nM
COc1nc(O[C@H]2CCc3c(-c4cccc(-c5ccc(CNC[C@@H]6CCC(=O)N6)c(OCC#N)n5)c4Cl)cccc32)c(Cl)cc1CN[C@@H]1CCC[C@@H]1O [Example 651] | 29.5 nM | 0.297 nM | 41 nM
COc1nc(O[C@H]2CCc3c(-c4cccc(-c5cnc(CNC[C@@H]6CCC(=O)N6)c(OC)n5)c4Cl)cccc32)c(Cl)cc1CNC[C@@H]1CCC(=O)N1 [Example 652] | 140 nM | 0.158 nM | 59 nM
N#CCOc1cc(-c2cccc(-c3cccc4c3CC[C@@H]4Oc3nc(OCC#N)c(CNC[C@@H]4CCC(=O)N4)cc3Cl)c2Cl)ccc1CNC[C@@H]1CCC(=O)N1 [Example 653] | 105 nM | 0.17 nM | 93 nM
COc1nc(O[C@H]2CCc3c(-c4cccc(-c5ccc(CNC[C@@H]6CCC(=O)N6)c(OCC#N)c5)c4Cl)cccc32)c(Cl)cc1CNC[C@@H](O)CC(=O)O [Example 654] | 10.9 nM | 0.09 nM | 27 nM
COc1nc(O[C@H]2CCc3c(-c4cccc(-c5ccc(CNC[C@@H]6CCC(=O)N6)c(OCC#N)c5)c4Cl)cccc32)c(Cl)cc1CNC[C@@H]1CCC(=O)N1 [Example 655] | 26 nM | 0.404 nM | 28 nM
COc1nc(O[C@H]2CCc3c(-c4cccc(-c5ccc(CNC[C@@H]6CCC(=O)N6)c(OCC#N)n5)c4Cl)cccc32)c(Cl)cc1CNC[C@@H]1CCC(=O)N1 [Example 656] | 37.7 nM | 0.29 nM | 24 nM
COc1nc(O[C@H]2CCc3c(-c4cccc(-c5ccc(CNC[C@@H]6CCC(=O)N6)c(OC(F)F)c5)c4Cl)cccc32)c(Cl)cc1CNC[C@@H]1CCC(=O)N1 [Example 657] | 156 nM | 0.795 nM | 197 nM
COc1nc(-c2cccc(-c3cccc4c3CC[C@@H]4Oc3nc(OCC#N)c(CNC[C@@H]4CCC(=O)N4)cc3Cl)c2Cl)ccc1CNC[C@@H]1CCC(=O)N1 [Example 658] | 78.5 nM | 0.221 nM | 51 nM
CS(=O)(=O)c1cncc(COc2nc(O[C@H]3CCc4c(-c5cccc(-c6ccc(CN)cc6)c5Cl)cccc43)c(Cl)cc2CNC[C@@H](O)CC(=O)O)c1 [Example 659] | 22.1 nM | 0.064 nM | 51 nM
C[C@@](CO)(NCc1cc(Cl)c(O[C@H]2CCc3c(-c4cccc(-c5ccc(OCCNCCO)cc5)c4Cl)cccc32)nc1OCc1cncc(S(C)(=O)=O)c1)C(=O)O [Example 660] | 15.2 nM | 0.064 nM | 107 nM
N#Cc1cncc(COc2nc(O[C@H]3CCc4c(-c5cccc(-c6ccc(OCCNCCO)cc6)c5Cl)cccc43)ccc2CNC[C@@H](O)CC(=O)O)c1 [Example 661] | 126 nM | 0.256 nM | 159 nM
